Measurements published in patent US6358885B1, “Substituted phenylheterocyclic herbicides” (Mississippi State University, priority 1992, dated 2002).

Key:
Assay in all cases: Test B preemergence/postemergence greenhouse plant response rating 0 to 10
Details in all cases: 0 to 10 scale
wheat = format: in vivo, Triticum aestivum
Excerpt: (§1) Seeds of barley (Hordeum vulgare), barnyardgrass (Echinochloa crus-galli), bedstraw (Galium aparine), blackgrass (Alopecurus myosuroides), […] (Bromus secalinus), chickweed (Stellaria media), cocklebur (Xanthium pensylvanicum), corn (Zea mays), cotton (Gossypium hirsutum), crabgrass (Digitaria spp.), giant foxtail (Setaria faberii), lambsquarters (Chenopodium album), morningglory (Ipomoea hederacea), rape (Brassica napus), rice (Oryza sativa), sorghum (Sorghum bicolor), soybean (Glycine max), sugar beet (Beta vulgaris), velvetleaf (Abutilon theophrasti), wheat (Triticum aestivum), wild buckwheat (Polygonum convolvulus), and wild oat (Avena fatua) and purple nutsedge. (Cyperus rotundus) tubers were planted and treated preemergence with test chemicals dissolved in a non-phytotoxic solvent. At the same time, these crop and weed species were also treated with postemergence applications of test chemicals. Plants ranged in height from two to eighteen cm (one to four leaf stage) for postemergence treatments. Treated plants and controls were maintained in a greenhouse for twelve to sixteen days, after which all species were compared to controls and visually evaluated. […] A dash (-) response means no test result.

wild oat = format: in vivo, Avena fatua
Excerpt: as §1

cheatgrass = format: in vivo, Bromus secalinus
Excerpt: as §1

wild buckwheat = format: in vivo, Polygonum convolvulus
Excerpt: as §1

rape = format: in vivo, Brassica napus
Excerpt: as §1

blackgrass = format: in vivo, Alopecurus myosuroides
Excerpt: as §1

lambsquarters = format: in vivo, Chenopodium album
Excerpt: as §1

bedstraw = format: in vivo, Galium aparine
Excerpt: as §1

chickweed = format: in vivo, Stellaria media
Excerpt: as §1

sugar beet = format: in vivo, Beta vulgaris
Excerpt: as §1

barley = format: in vivo, Hordeum vulgare
Excerpt: as §1

Fc1cc(Cl)c(-c2ccccc2)cc1-c1nn2c(c1Cl)CCCC2 [Compound 46]
8: Plant response rating, Bedstraw (bedstraw; POSTEMERGENCE, Rate 200 g/ha)
4: Plant response rating, Cheatgrass (cheatgrass; POSTEMERGENCE, Rate 200 g/ha) | Plant response rating, Wild buckwheat (wild buckwheat; Rate 200 g/ha, PREEMERGENCE) | Plant response rating, Rape (rape; POSTEMERGENCE, Rate 50 g/ha) | Plant response rating, Rape (rape; Rate 200 g/ha, POSTEMERGENCE)
10: Plant response rating, Wild buckwheat (wild buckwheat; Rate 200 g/ha, POSTEMERGENCE) | Plant response rating, Lambsquarter (lambsquarters; Rate 200 g/ha, POSTEMERGENCE) | Plant response rating, Sugar beet (sugar beet; POSTEMERGENCE, Rate 50 g/ha)
0: Plant response rating, Wheat (wheat; PREEMERGENCE, Rate 50 g/ha) | Plant response rating, Wheat (wheat; Rate 200 g/ha, PREEMERGENCE) | Plant response rating, Wild oat (wild oat; PREEMERGENCE, Rate 50 g/ha) | Plant response rating, Cheatgrass (cheatgrass; PREEMERGENCE, Rate 50 g/ha) | Plant response rating, Cheatgrass (cheatgrass; Rate 200 g/ha, PREEMERGENCE) | Plant response rating, Wild buckwheat (wild buckwheat; PREEMERGENCE, Rate 50 g/ha) | Plant response rating, Rape (rape; PREEMERGENCE, Rate 50 g/ha) | Plant response rating, Rape (rape; Rate 200 g/ha, PREEMERGENCE) | Plant response rating, Blackgrass (blackgrass; PREEMERGENCE, Rate 50 g/ha) | Plant response rating, Blackgrass (blackgrass; Rate 200 g/ha, PREEMERGENCE) | Plant response rating, Lambsquarter (lambsquarters; PREEMERGENCE, Rate 50 g/ha) | Plant response rating, Bedstraw (bedstraw; PREEMERGENCE, Rate 50 g/ha) | Plant response rating, Chickweed (chickweed; PREEMERGENCE, Rate 50 g/ha) | Plant response rating, Sugar beet (sugar beet; PREEMERGENCE, Rate 50 g/ha) | Plant response rating, Barley (barley; PREEMERGENCE, Rate 50 g/ha) | Plant response rating, Barley (barley; Rate 200 g/ha, PREEMERGENCE)
6: Plant response rating, Wild buckwheat (wild buckwheat; POSTEMERGENCE, Rate 50 g/ha) | Plant response rating, Bedstraw (bedstraw; POSTEMERGENCE, Rate 50 g/ha)
7: Plant response rating, Sugar beet (sugar beet; Rate 200 g/ha, PREEMERGENCE)
2: Plant response rating, Wheat (wheat; POSTEMERGENCE, Rate 50 g/ha) | Plant response rating, Wild oat (wild oat; POSTEMERGENCE, Rate 50 g/ha) | Plant response rating, Wild oat (wild oat; Rate 200 g/ha, POSTEMERGENCE) | Plant response rating, Blackgrass (blackgrass; POSTEMERGENCE, Rate 50 g/ha) | Plant response rating, Bedstraw (bedstraw; Rate 200 g/ha, PREEMERGENCE) | Plant response rating, Chickweed (chickweed; Rate 200 g/ha, PREEMERGENCE) | Plant response rating, Barley (barley; POSTEMERGENCE, Rate 50 g/ha)
9: Plant response rating, Lambsquarter (lambsquarters; POSTEMERGENCE, Rate 50 g/ha) | Plant response rating, Lambsquarter (lambsquarters; Rate 200 g/ha, PREEMERGENCE) | Plant response rating, Sugar beet (sugar beet; Rate 200 g/ha, POSTEMERGENCE)
3: Plant response rating, Wheat (wheat; Rate 200 g/ha, POSTEMERGENCE) | Plant response rating, Cheatgrass (cheatgrass; POSTEMERGENCE, Rate 50 g/ha) | Plant response rating, Blackgrass (blackgrass; POSTEMERGENCE, Rate 200 g/ha) | Plant response rating, Chickweed (chickweed; POSTEMERGENCE, Rate 50 g/ha) | Plant response rating, Chickweed (chickweed; POSTEMERGENCE, Rate 200 g/ha) | Plant response rating, Barley (barley; POSTEMERGENCE, Rate 200 g/ha)
